In patent EP2020405A1, “Substituted aryl or heteroarylpiperidine derivatives as melanocortin-4 receptor modulators” (Santhera Pharmaceuticals (Schweiz) AG, priority 2007, dated 2009):

What was measured:
[1] = molecular target: T1, hMC-4R (Homo sapiens, UniProt P32245); assay: Membrane binding assay (fluorescence polarization, competition with fluorescence labeled NDP-alpha-MSH); details: HEK293 cell membrane preparations expressing human melanocortin receptors; 5 h at room temperature
T1 construct: expressed in transfected cells; host or cells: HEK293
T1 sequence (P32245 whole entry): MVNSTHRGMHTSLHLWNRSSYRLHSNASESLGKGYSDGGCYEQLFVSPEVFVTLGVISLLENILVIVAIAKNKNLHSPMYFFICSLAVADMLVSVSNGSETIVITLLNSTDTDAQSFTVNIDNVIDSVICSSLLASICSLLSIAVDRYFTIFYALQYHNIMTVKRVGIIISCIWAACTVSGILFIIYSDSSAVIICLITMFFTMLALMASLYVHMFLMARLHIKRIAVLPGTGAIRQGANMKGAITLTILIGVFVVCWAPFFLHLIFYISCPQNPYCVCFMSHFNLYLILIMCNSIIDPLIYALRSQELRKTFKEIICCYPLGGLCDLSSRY

[2] = molecular target: T1, hMC-4R; assay: Functional assay (membrane based cAMP fluorescence polarization, agonistic activity); type: biochemical; parameters: concentration or dose not given beside the values; details: cAMP produced compared to stimulation with NDP-alpha-MSH
Method: Agonistic activity of human melanocortin receptors is determined in a homogeneous membrane based assay.
Membrane preparations from HEK293 cells expressing the human melanocortin receptors are added. After a short preincubation period, an appropriate amount of ATP, GTP and the cAMP antibody is added and the plate is further incubated before the fluorescence labeled cAMP conjugate is dispensed. The plate is incubated for 2 h at 4°C before it is read on a fluorescence polarization microplate reader. The amount of cAMP produced as a response to a test compound is compared to the production of cAMP resulting from stimulation with NDP-alpha-MSH.

| SMILES | IC50 [1] | % activation functional assay [2] |
| --- | --- | --- |
| O=C(C(Cc1ccc(Cl)cc1Cl)N1CCOCC1)N1CCC(c2ccc(Cl)cc2OCCN2CCCC2)CC1 (stereo not drawn) [Example 25] | 100 nM | 0% |
| CCC(Cc1cc(Cl)ccc1C1CCN(C(=O)C(Cc2ccc(Cl)cc2Cl)n2cncn2)CC1)CN1CCCC1 (stereo not drawn) [Example 22] | 17 nM | 0% |
| O=C(C(Cc1ccc(Cl)cc1Cl)Nc1cccnc1)N1CCC(c2ccc(Cl)cc2OCCN2CCCC2)CC1 (stereo not drawn) [Example 27] | 5.9 nM | 0% |
| O=C(C(Cc1ccc(Cl)cc1Cl)N1CCCCC1)N1CCC(c2cc(F)ccc2CCN2CCCC2)CC1 (stereo not drawn) [Example 15] | 180 nM | 0% |

More lines, in order of falling IC50 [1], values ahead:

| IC50 [1] | % activation functional assay [2] | SMILES |
| --- | --- | --- |
| 220 nM | 0% | Cc1ccn(C(Cc2ccc(Cl)cc2Cl)C(=O)N2CCC(c3ccc(Cl)cc3OCCN3CCCC3)CC2)n1 (stereo not drawn) [Example 34] |
| 62 nM | 14% | O=C(C(Cc1ccc(Cl)cc1Cl)N1CCCCC1)N1CCC(c2ccc(Cl)cc2OCCN2CCCC2)CC1 (stereo not drawn) [Example 10] |
| 7.7 nM | 0% | O=C(C(Cc1ccc(Cl)cc1Cl)n1cncn1)N1CCC(c2ccc(Cl)cc2OCCN2CCCC2)CC1 (stereo not drawn) [Example 23] |
| 2.4 nM | 0% | CCC(CN1CCCC1)Oc1cc(Cl)ccc1C1CCN(C(=O)[C@@H](Cc2ccc(Cl)cc2Cl)N2CCCC2)CC1 (stereo partly drawn) [Example 4] |
| 2.1 nM | 0% | CCC(COc1cc(Cl)ccc1C1CCN(C(=O)[C@@H](Cc2ccc(Cl)cc2Cl)N2CCCC2)CC1)N1CCCC1 (stereo partly drawn) [Example 3] |
